Test results from ChEMBL document CHEMBL5113463, “Discovery and preclinical evaluations of JBD0131, a novel nitrodihydro-imidazooxazole anti-tuberculosis agent” (Bioorg Med Chem Lett, 2022).
≈ marks a conversion by molar mass, not a printed value.

What was measured:
[1] = Half life in CD-1 mouse at 0.6 mg/kg, iv; format: ADME, organism-based; settings: in vivo
[2] = test system: Mycobacterium tuberculosis; test: Antimycobacterial activity against Mycobacterium tuberculosis H37Rv assessed as bacterial growth inhibition incubated for 7 days by MABA assay; format: functional; settings: 168 h, time 7 day
[3] = Cytotoxicity against African green monkey vero cells assessed as reduction in cell viability; format: toxicity, cell-based; settings: chlorocebus sabaeus
[4] = Oral bioavailability in CD-1 mouse at 5 mg/kg; format: ADME, organism-based; settings: in vivo
[5] = AUC (0-last) in CD-1 mouse at 5 mg/kg, po; format: ADME, organism-based; set-up: dose 5 mg/kg, route po; settings: in vivo
[6] = Volume of distribution in CD-1 mouse at 0.6 mg/kg, iv; format: ADME, organism-based; settings: in vivo
[7] = Cmax in CD-1 mouse at 5 mg/kg, po; format: ADME, organism-based; set-up: dose 5 mg/kg, route po; settings: in vivo
[8] = test system: Mycobacterium tuberculosis; test: Antimycobacterial activity against clinical isolate drug susceptible Mycobacterium tuberculosis H37Rv assessed as bacterial growth inhibition; format: functional
[9] = AUC (0-last) in Sprague-Dawley rat at 4 mg/kg, po; format: ADME, organism-based; settings: in vivo
[10] = target: Sodium channel protein type 5 subunit alpha (Homo sapiens, UniProt Q14524); test: Inhibition of NaV 1.5 (unknown origin)
[11] = target: Voltage-gated inwardly rectifying potassium channel KCNH2 (Homo sapiens, UniProt Q12809); test: Inhibition of human ERG; format: toxicity
[12] = Half life in Beagle dog at 0.5 mg/kg, iv; format: ADME, organism-based, Canis lupus familiaris; settings: in vivo
[13] = Cmax in Beagle dog at 2 mg/kg, po; format: ADME, organism-based, Canis lupus familiaris; set-up: dose 2 mg/kg, route po; settings: in vivo
[14] = AUC (0-last) in Beagle dog at 2 mg/kg, po; format: ADME, organism-based, Canis lupus familiaris; settings: in vivo
[15] = Half life in Sprague-Dawley rat at 1 mg/kg, iv; format: ADME, organism-based; settings: in vivo
[16] = target: T1, A-type voltage-gated potassium channel KCND3 (Homo sapiens, UniProt Q9UK17); test: Inhibition of Kv4.3 (unknown origin)
T1 sequence (Q9UK17 whole entry): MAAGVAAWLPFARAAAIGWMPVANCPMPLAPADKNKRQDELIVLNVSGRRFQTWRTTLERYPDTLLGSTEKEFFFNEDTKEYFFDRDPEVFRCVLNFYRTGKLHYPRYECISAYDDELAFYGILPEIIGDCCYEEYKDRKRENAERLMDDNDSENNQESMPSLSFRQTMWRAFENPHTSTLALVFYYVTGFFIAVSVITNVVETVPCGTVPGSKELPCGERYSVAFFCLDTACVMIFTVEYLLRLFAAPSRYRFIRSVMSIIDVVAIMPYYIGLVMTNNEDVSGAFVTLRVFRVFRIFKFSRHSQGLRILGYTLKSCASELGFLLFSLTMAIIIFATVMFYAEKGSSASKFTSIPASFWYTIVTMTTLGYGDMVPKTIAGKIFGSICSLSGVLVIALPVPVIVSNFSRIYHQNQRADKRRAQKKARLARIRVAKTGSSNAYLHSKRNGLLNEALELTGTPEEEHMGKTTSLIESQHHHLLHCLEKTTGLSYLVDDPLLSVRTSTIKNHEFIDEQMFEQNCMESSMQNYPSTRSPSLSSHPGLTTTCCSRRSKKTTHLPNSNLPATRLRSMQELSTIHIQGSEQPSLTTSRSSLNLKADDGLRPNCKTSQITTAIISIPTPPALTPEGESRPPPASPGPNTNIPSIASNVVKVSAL

[17] = Cmax in Sprague-Dawley rat at 4 mg/kg, po; format: ADME, organism-based; set-up: dose 4 mg/kg, route po; settings: in vivo
[18] = target: Voltage-dependent L-type calcium channel subunit alpha-1C (Homo sapiens, UniProt Q13936); test: Inhibition of human Cav1.2
[19] = Metabolic stability in mouse liver microsomes assessed as half life; format: ADME, Microsome
[20] = test system: Mycobacterium tuberculosis; test: Antimycobacterial activity against Mycobacterium tuberculosis H37Rv assessed as bacterial growth inhibition incubated for 10 days under hypoxic condition followed by 28 hrs incubation under normoxic condition by Low-Oxygen-Recovery Assay; format: functional; settings: 264 h, time 11 day
[21] = Metabolic stability in rat liver microsomes assessed as half life; format: ADME, Microsome
[22] = Metabolic stability in human liver microsomes assessed as half life; format: ADME, Microsome
[23] = Clearance in CD-1 mouse at 0.6 mg/kg, iv; format: ADME, organism-based; settings: in vivo

Voltage-gated inwardly rectifying potassium channel KCNH2, sequence (Q12809 whole entry): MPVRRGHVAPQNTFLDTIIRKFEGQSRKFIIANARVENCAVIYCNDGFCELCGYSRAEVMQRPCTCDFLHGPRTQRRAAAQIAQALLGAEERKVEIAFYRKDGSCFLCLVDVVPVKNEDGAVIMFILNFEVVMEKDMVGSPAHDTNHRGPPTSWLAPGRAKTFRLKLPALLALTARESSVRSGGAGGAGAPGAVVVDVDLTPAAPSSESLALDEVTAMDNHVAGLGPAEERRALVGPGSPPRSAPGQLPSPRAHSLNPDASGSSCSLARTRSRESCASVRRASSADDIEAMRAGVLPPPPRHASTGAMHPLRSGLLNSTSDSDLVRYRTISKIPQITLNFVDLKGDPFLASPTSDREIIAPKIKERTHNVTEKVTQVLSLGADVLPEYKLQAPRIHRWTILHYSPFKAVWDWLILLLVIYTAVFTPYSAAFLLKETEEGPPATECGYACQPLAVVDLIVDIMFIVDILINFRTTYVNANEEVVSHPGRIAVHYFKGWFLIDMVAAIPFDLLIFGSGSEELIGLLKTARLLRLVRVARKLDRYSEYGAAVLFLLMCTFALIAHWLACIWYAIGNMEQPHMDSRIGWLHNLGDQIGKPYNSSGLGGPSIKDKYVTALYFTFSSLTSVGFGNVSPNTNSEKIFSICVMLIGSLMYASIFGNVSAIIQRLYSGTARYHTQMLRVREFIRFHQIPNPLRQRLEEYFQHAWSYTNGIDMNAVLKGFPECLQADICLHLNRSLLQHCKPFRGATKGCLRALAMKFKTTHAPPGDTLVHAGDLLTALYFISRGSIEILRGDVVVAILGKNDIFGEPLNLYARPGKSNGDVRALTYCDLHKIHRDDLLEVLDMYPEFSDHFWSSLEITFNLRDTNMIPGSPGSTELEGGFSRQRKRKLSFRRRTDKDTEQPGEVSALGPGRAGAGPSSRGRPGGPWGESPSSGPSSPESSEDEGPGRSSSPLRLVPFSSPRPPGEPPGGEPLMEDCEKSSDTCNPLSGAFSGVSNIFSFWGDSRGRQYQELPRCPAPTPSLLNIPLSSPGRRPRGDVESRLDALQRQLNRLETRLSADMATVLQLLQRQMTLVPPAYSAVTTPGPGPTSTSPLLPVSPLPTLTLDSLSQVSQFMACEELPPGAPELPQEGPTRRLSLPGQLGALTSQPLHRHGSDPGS
Sodium channel protein type 5 subunit alpha, sequence (Q14524 whole entry): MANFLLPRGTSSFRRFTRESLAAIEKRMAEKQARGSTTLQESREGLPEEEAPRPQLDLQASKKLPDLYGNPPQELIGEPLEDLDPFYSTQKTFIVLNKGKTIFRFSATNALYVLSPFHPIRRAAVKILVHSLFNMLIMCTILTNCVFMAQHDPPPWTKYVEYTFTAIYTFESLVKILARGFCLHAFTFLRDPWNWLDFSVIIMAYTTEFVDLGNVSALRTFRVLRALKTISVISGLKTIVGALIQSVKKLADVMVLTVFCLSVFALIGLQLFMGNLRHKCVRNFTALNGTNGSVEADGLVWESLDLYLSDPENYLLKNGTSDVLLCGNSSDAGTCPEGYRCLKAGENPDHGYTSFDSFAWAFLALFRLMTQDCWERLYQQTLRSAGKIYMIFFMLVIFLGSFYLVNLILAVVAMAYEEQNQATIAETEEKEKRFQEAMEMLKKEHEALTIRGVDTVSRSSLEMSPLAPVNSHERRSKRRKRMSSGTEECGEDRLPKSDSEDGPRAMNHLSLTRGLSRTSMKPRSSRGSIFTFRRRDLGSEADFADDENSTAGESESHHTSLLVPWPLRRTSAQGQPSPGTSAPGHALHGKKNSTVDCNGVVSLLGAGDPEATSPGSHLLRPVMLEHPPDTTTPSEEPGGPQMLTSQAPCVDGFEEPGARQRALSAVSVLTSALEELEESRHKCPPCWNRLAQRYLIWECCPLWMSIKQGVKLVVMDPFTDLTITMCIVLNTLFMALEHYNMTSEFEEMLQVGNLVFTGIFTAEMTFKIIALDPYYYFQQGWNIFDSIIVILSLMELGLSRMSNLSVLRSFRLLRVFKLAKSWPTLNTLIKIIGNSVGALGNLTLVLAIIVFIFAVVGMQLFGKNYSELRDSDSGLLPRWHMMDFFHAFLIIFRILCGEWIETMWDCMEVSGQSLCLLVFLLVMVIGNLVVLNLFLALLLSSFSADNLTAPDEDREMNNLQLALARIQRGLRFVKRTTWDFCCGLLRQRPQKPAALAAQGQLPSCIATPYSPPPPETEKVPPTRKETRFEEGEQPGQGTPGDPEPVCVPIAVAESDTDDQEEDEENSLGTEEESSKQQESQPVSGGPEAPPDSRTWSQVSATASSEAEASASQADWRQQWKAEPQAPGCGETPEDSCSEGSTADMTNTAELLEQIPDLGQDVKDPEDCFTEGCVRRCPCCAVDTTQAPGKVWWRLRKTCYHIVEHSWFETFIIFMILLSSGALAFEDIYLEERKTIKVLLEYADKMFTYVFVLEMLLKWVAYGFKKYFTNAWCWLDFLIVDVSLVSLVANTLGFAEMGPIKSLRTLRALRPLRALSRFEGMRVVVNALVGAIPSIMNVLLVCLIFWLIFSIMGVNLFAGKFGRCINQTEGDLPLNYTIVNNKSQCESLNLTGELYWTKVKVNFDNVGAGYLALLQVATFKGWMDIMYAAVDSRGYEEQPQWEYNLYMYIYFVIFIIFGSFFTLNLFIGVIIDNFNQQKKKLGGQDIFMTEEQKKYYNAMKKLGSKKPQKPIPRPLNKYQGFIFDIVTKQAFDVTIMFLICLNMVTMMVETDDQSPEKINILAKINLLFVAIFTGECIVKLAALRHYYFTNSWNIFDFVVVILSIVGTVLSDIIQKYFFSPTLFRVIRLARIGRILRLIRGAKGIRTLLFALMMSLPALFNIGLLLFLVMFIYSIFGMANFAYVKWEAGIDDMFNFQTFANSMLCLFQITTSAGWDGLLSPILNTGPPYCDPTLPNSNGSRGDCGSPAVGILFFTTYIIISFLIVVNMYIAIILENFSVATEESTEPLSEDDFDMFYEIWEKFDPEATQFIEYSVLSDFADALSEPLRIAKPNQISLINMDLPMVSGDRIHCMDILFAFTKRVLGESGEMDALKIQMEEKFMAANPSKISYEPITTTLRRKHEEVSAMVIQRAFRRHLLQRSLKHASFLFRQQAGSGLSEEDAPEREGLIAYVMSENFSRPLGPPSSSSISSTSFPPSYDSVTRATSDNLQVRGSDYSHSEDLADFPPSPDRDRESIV

`C[C@]1(CN2Cc3nc(-c4ccc(F)cc4F)sc3C2)Cn2cc([N+](=O)[O-])nc2O1` showed a half-life [1] of 185 min, an MIC [2] of under 0.013 µg/mL and a CC50 [3] of over 32 µg/mL. The F ([4]; mouse, po, 5 mg/kg) was 9.6%, the AUClast ([5]; mouse) was 1789 ng·h/mL and the Vd [6] was 2.66 L/kg. The Cmax [7] was 182 ng/mL.

`NC[C@H]1O[C@H](O[C@H]2[C@H](O)[C@@H](O[C@H]3O[C@H](CO)[C@@H](O)[C@H](N)[C@H]3O)[C@H](N)C[C@@H]2N)[C@H](O)[C@@H](O)[C@@H]1O` [KANAMYCIN] gave an MIC50 [8] of 1.22 µg/mL (≈ 2.52 µM) and an MIC90 [8] of 1.91 µg/mL (≈ 3.94 µM).

With `NNC(=O)c1ccncc1` [ISONIAZID] the MIC50 [8] was 0.024 µg/mL (≈ 0.175 µM) and the MIC90 [8] was 0.034 µg/mL (≈ 0.248 µM).

Work on `C[C@]1(CN2Cc3nc(-c4ccc(F)cc4)sc3C2)Cn2cc([N+](=O)[O-])nc2O1` yielded an AUClast [9] of 574 ng·h, an IC50 [10] of 12.9 µM and an IC50 [11] of 1.69 µM. It also gave a half-life [12] of 918 min, a Cmax [13] of 5.82 nM and an AUClast [14] of 166 ng·h. It also gave a half-life [15] of 279 min, an IC50 [16] of over 40 µM and a Cmax [17] of 57.9 nM. For the same compound, the IC50 [18] was 13.3 µM.

With `C[C@]1(CN2CCc3nc(-c4ccc(F)cc4)sc3CC2)Cn2cc([N+](=O)[O-])nc2O1` the half-life [19] was 7 min, the MIC [20] was over 8 µg/mL and the MIC [2] was 0.03 µg/mL (≈ 0.0699 µM). It also gave a CC50 [3] of over 32 µg/mL, a half-life [21] of 8 min and a half-life [22] of 15 min.

For `C[C@]1(CN2Cc3nc(-c4ccc(F)cc4)oc3C2)Cn2cc([N+](=O)[O-])nc2O1`, the half-life [19] was 43 min, the MIC [2] was 0.021 µg/mL (≈ 0.0545 µM) and the CC50 [3] was over 32 µg/mL. It also gave a half-life [21] of 39 min and a half-life [22] of 59 min.

With `C[C@]1(CN2Cc3nc(-c4ncc(F)cc4F)sc3C2)Cn2cc([N+](=O)[O-])nc2O1` the half-life [1] was 84 min, the MIC [2] was 0.06 µg/mL (≈ 0.143 µM) and the CC50 [3] was over 32 µg/mL. It also gave a bioavailability ([4]; CD-1, mouse) of 57.9%, a clearance [23] of 13.8 mL/min/kg and an AUC(0-t) ([5]; CD-1, mouse) of 4990 ng·h/mL. For the same compound, the Vd [6] was 1.57 L/kg and the Cmax [7] was 1010 ng/mL.
